# Measurements published in patent publication US9624238B2, “4H-thieno[3,2-C]chromene-based inhibitors of Notum Pectinacetylesterase and methods of their use” (Lexicon Pharmaceuticals, Inc., priority 2011, dated 2017).
# Columns and labels:
# [1] = molecular target: T1, human notum pectinacetyltransferase (Homo sapiens, UniProt Q6P988); experiment: Binding assay (OPTS esterase substrate, fluorimetric); assay type: biochemical; details: class symbols
# T1 construct: made in house; unpurified conditioned medium used
# T1 sequence (Q6P988 20-496): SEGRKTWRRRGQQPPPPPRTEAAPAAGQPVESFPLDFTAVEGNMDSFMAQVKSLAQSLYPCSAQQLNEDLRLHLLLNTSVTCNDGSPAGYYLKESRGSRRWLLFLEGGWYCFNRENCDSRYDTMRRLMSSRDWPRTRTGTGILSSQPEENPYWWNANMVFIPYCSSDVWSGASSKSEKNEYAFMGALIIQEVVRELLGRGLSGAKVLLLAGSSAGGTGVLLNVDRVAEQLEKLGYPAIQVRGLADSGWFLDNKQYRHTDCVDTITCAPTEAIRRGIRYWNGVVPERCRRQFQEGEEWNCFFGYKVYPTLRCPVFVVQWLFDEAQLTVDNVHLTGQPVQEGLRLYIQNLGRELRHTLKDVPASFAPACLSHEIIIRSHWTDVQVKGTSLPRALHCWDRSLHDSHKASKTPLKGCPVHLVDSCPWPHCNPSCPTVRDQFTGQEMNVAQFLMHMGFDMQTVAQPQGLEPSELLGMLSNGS
# Protocol: Plasmid containing human notum pectinacetyltransferase in pcDNA3.1(+) vector was transfected into HEK (293 cells and clones were selecting by growing in presence of 400 ug/mL of G418. Condition media from these cells was used for the assay.
# [2] = molecular target: T1, human notum pectinacetyltransferase; experiment: Reporter assay (CellSensor LEF/TCF-bla FreeStyle 293F cells, Wnt3a and notum conditioned media); assay type: cell-based; details: class symbols
# Protocol: Plasmid containing human notum pectinacetyltransferase in pcDNA3.1(+) vector was transfected into HEK (293 cells and clones were selecting by growing in presence of 400 ug/mL of G418. The clone containing highest expression of human notum pectinacetyltransferase in the conditioned media was maintained for all future activity assays. L cells overexpressing and secreting Wnt3a into the conditioned media were purchased from ATCC.
# The assay protocol was as follows. […] The cell growth medium consisted of DMEM with 10% Dialyzed FBS, 5 μg/ml Blasticidin (Invitrogen, R210-01), 0.1 mM NEAA, 25 mM HEPES and 1×GPS. Cells were then trypsinized by first rinsing with PBS, followed by addition of 5 mL of trypsin and incubation of plates at room temperature for two minutes. A total of 10 mL of assay media (Opti-MEM, plus 0.5% dialyzed FBS, 0.1 mM NEAA, 1 mM sodium pyruvate, 10 mM HEPES, 1×GPS) was then added per 15 cm plate. Cells were counted and suspended at 0.75 million cells per mL. […] After incubation of cells at 37° C. for 3 hours, 10 μL of 30 mM LiCl in assay medium was added per well, followed by incubation at 37° C. for another 3 hours. […] Ten μL of the Wnt3a/notum pentinacetyltransferase mixture was then transferred from Greiner plates to each well of the 384-well plates containing the CellSensor cells.
SMILES,IC50 [1] [nM],EC50 [2] [nM]
COc1ccc2c(c1Cl)CCc1cc(C(=O)N3CCC(C#N)C3)sc1-2 (centres unmarked),< 100,< 50
N#CC1CCN(C(=O)c2cc3c(s2)-c2cccc(F)c2CC3)C1 (centres unmarked),< 100,< 50
O=C1CCN(C(=O)c2cc3c(s2)-c2ccc(Cl)c(Cl)c2OC3)C1,< 100,< 50
N#CC1CCN(C(=O)c2cc3c(s2)-c2ccc(Cl)c(Cl)c2OC3)C1 (centres unmarked),< 100,< 50
CC1Cc2ccccc2-c2sc(C(=O)O)cc21 (centres unmarked),< 2000,< 50
NC(=O)c1cc2c(s1)-c1ccccc1S(=O)(=O)C2,< 1000,< 50
COc1ccc2c(c1Br)CCc1cc(C(=O)O)sc1-2,< 50,< 50
O=C(O)c1cc2c(s1)-c1cccc(Cl)c1OC2,< 1000,< 50
NC(=O)c1cc2c(s1)-c1cccc(Cl)c1CC2,< 1000,< 50
O=C(O)c1cc2c(s1)-c1cccc(Cl)c1CC2,< 100,< 50
Cc1cc(Cl)c2c(c1)-c1sc(C(N)=O)cc1CC2,< 50,< 50
NC(=O)c1cc2c(s1)-c1c(F)ccc(Cl)c1OC2,< 50,< 50
O=C(O)c1cc2c(s1)-c1c(F)ccc(Cl)c1OC2,< 1000,< 50
Cc1ccc(Cl)c2c1-c1sc(C(N)=O)cc1CO2,< 50,< 50
N#Cc1cccc2c1OCc1cc(C(N)=O)sc1-2,< 1000,< 50
COc1cc(F)c2c(c1)-c1sc(C(=O)O)cc1CC2,< 1000,< 50
Cc1cccc2c1OCc1cc(C(=O)O)sc1-2,< 2000,< 50
NC(=O)c1cc2c(s1)-c1ccc(F)c(F)c1CC2,< 50,< 50
O=C(O)c1cc2c(s1)-c1cc(F)cc(F)c1OC2,< 50,< 50
CC1Cc2cc(C(N)=O)sc2-c2cc(F)cc(F)c21 (centres unmarked),< 50,< 50
CC1Cc2cc(C(=O)O)sc2-c2cc(F)cc(F)c21 (centres unmarked),< 50,< 50
NC(=O)c1cc2c(s1)-c1c(Cl)ccc(Cl)c1OC2,< 50,< 50

SMILES,IC50 [1] [nM],EC50 [2] [nM]
O=C(O)c1cc2c(s1)-c1c(Cl)ccc(Cl)c1OC2,< 100,< 50
O=C(O)c1cc2c(s1)-c1c(F)ccc(F)c1OC2,< 100,< 50
CC1Cc2cc(C(N)=O)sc2-c2c(F)ccc(F)c21 (centres unmarked),< 50,< 50
CC1Cc2cc(C(=O)O)sc2-c2c(F)ccc(F)c21 (centres unmarked),< 50,< 50
Cc1ccc(C)c2c1OCc1cc(C(N)=O)sc1-2,< 100,< 50
Cc1ccc(C)c2c1OCc1cc(C(=O)O)sc1-2,< 2000,< 50
CN(C)c1ccc2c(c1)CCc1cc(C(=O)O)sc1-2,< 2000,< 500
CNc1ccc2c(c1)CCc1cc(C(=O)O)sc1-2,< 2000,< 50
NC(=O)c1cc2c(s1)-c1ccc(Cl)cc1OC2,< 100,< 50
O=C(O)c1cc2c(s1)-c1ccc(Cl)cc1OC2,< 100,< 50
CC1Cc2cc(C(N)=O)sc2-c2ccc(Cl)cc21 (centres unmarked),< 100,< 50
CC1Cc2cc(C(=O)O)sc2-c2ccc(Cl)cc21 (centres unmarked),< 1000,< 50
CC1(C)Cc2cc(C(N)=O)sc2-c2ccc(Cl)cc21,< 1000,< 50
CC1(C)Cc2cc(C(=O)O)sc2-c2ccc(Cl)cc21,< 2000,< 50
O=C(O)c1cc2c(s1)-c1ccc(F)cc1OC2,< 2000,< 50
Cc1c(F)ccc2c1OCc1cc(C(N)=O)sc1-2,< 50,< 50
Cc1c(F)ccc2c1OCc1cc(C(=O)O)sc1-2,< 1000,< 50
O=C(O)c1cc2c(s1)-c1cc(F)c(F)cc1S(=O)(=O)C2,< 2000,< 500
O=C(O)c1cc2c(s1)-c1cc(F)c(F)cc1SC2,< 100,< 50
CC1Cc2cc(C(=O)O)sc2-c2cc(F)c(F)cc21 (centres unmarked),< 1000,< 50
CC1Cc2cc(C(N)=O)sc2-c2cc(F)c(F)cc21 (centres unmarked),< 50,< 50
CC1(C)Cc2cc(C(=O)O)sc2-c2cc(F)c(F)cc21,< 2000,< 50

SMILES,IC50 [1] [nM],EC50 [2] [nM]
NC(=O)c1cc2c(s1)-c1c(cc(F)c(F)c1F)OC2,< 50,< 50
NC(=O)c1cc2c(s1)-c1cc(Br)cc(Cl)c1OC2,< 1000,< 50
O=C(O)c1cc2c(s1)-c1cc(Br)cc(Cl)c1OC2,< 50,< 50
NC(=O)c1cc2c(s1)-c1cc(Cl)ccc1SC2,< 1000,< 50
NC(=O)c1cc2c(s1)-c1cc(Cl)cc(F)c1OC2,< 100,< 50
Cc1cc(Cl)cc2c1OCc1cc(C(N)=O)sc1-2,< 1000,< 50
Cc1cc(Cl)cc2c1OCc1cc(C(=O)O)sc1-2,< 1000,< 50
O=C(O)c1cc2c(s1)-c1cc(Cl)c(C(F)(F)F)cc1OC2,< 1000,< 50
O=C(O)c1cc2c(s1)-c1cc(F)ccc1S(=O)(=O)C2,< 1000,< 50
CC1Cc2cc(C(=O)O)sc2-c2cc(F)ccc21 (centres unmarked),< 50,< 50
Cc1ccc2c(c1)-c1sc(C(=O)O)cc1CO2,< 1000,< 50
Cc1ccc2c(c1)-c1sc(C(N)=O)cc1CS2,< 2000,< 50
NC(=O)c1cc2c(s1)-c1c(F)cccc1OC2,< 50,< 50
COc1ccc2c(c1Cl)CCc1cc(C(=O)N3CCC(F)C3)sc1-2 (centres unmarked),< 50,< 50
COc1ccc2c(c1Cl)CCc1cc(C(=O)N3CCC(OC)C3)sc1-2 (centres unmarked),< 50,< 50
COC1CCN(C(=O)c2cc3c(s2)-c2cccc(F)c2CC3)C1 (centres unmarked),< 50,< 50
O=C(c1cc2c(s1)-c1cccc(F)c1CC2)N1CCC(F)C1 (centres unmarked),< 1000,< 50
O=C(c1cc2c(s1)-c1ccc(Cl)c(Cl)c1OC2)N1CCC(F)C1 (centres unmarked),< 1000,< 50
O=C(c1cc2c(s1)-c1ccc(F)c(F)c1CC2)N1CCC(F)C1 (centres unmarked),< 100,< 50
O=C(c1cc2c(s1)-c1cc(Cl)cc(F)c1OC2)N1CCC(F)C1 (centres unmarked),< 1000,< 50
